Measured values published in patent US7750005B2, “Substituted hexahydropyrazino [1,2-A] pyrimidine-4,7-dione derivatives, process for their preparation and their use as medicaments” (Sanofi-Aventis Deutschland GmbH, priority 2003, dated 2010).

Test system: female NMRI mice
Assay: Anorectic effect: cumulative condensed milk consumption after oral administration
Assay type: in vivo
Details: food withdrawn 24 hours, oral dose 50 mg/kg by gavage
Method: The anorectic effect was tested on female NMRI mice. After withdrawal of food for 24 hours, the test product was administered by gavage. The animals were housed singly with free access to drinking water and were offered condensed milk 30 minutes after administration of the product. The condensed milk consumption was determined every half hour for 7 hours, and the general wellbeing of the animals was observed. The measured milk consumption was compared with the vehicle-treated control animals.

Structure (SMILES): COc1ccc(Cl)cc1S(=O)(=O)N1CCC(=O)N2C(Cc3ccc(Cl)cc3)C(=O)N(C(C)C)CC21 (centres unmarked) [Example 2, 6-(4-Chlorobenzyl)-1-(5-chloro-2-methoxybenzenesulfonyl)-8-isopropylhexahydropyrazino[1,2-a]pyrimidine-4,7-dione]
- Reduction in the cumulative milk consumption as % of the control (milk consumption over 7 hours): 11 % of the control
- cumulative milk consumption of the treated animals (over 7 hours, N=10, control animals 5.48 ml): 10/4.90 ml
